# Values quoted from earlier work in US20230087756A1, “SYSTEMS AND METHODS FOR […] OF BREWED BEVERAGES AND ACTIVE INGREDIENTS” (RECEPTOR HOLDINGS, INC., priority 2020, published 2023).
compound,measurement,setting,value
"CCCCCc1cc(O)c2c(c1)OC(C)(C)[C@@H]1CCC(C)=C[C@@H]21 [THC, (−)-trans-delta-9-tetrahydrocannabinol]",duration of appetite stimulant effect,after administration,≥ 24 h
same,peak effect,after most forms of oral administration,2 to 4 h
same,absorbed,after single oral doses,90-95%
same,duration of action for psychoactive effects,oral administration,4 to 6 h
